{"source": "patent US4622244A", "about": "“Process for preparation of microcapsules” (The Washington University, priority 1984, dated 1986)", "key": {"[1]": {"experiment": "In vitro release/dissolution by end-over-end tumbling in phosphate buffer at 37° C.", "format": "physicochemical"}, "[2]": {"experiment": "Solubility of cyclazocine in solvents (equilibration, solids content after solvent evaporation)", "format": "physicochemical", "experimental": "For example, taking cyclazocine as the solid, injectable drug material, Table I summarizes the solubility data obtained for this drug in a number of solvents.\nAfter equilibration (20-30 min), one ml. of solution was transferred to a tared weighing dish and the solids content determined by solvent evaporation.\nIn particular, the aromatic solvents have little tendency to dissolve it at room temperature."}, "[3]": {"experiment": "Mouse tail-flick test, morphine challenge", "format": "in vivo", "experimental": "Microcapsules (177-295 microns in size) so prepared were evaluated by the mouse tail-flick test procedure. Mice (groups of 6) were the test animals. The morphine challenge dose was 10 mg./kg. mouse; test animal response was measured 20 min. after morphine injection. As will be seen, the microcapsules caused more than 50% antagonism 28 days after injection both in the tests in which peanut oil was used as the suspending medium and in the tests where peanut oil plus aluminum monostearate was used as the suspending medium.\n*All injections (1 cc/100 g mouse) given through 18 gauge needle; Morphin\nchallenge dose: 10 mg/kg mouse; Capsule size: 177-295μ; Active content\nof capsules initially: 67 wt. %.\nSimilar studies were run with microcapsules (105 to 177 microns in size) of naltrexone free base (NFB) prepared in the same manner as the naltrexone pamoate microcapsules.\nchallenge dose: 10 mg/kg mouse; Capsule size: 105-177μ; Active content"}}, "note": "Like-named read-outs stand apart in the source and are kept apart here.", "data": [{"compound": "C[C@H]1[C@H]2Cc3ccc(O)cc3[C@]1(C)CCN2CC1CC1", "note": "[cyclazocine, 3-(cyclopropylmethyl)-1,2,3,4,-5,6-hexahydro-6,11-dimethyl-2,6-methano-3-benzazocin-8-ol]", "values": [{"measurement": "Complete dissolution time of unencapsulated drug", "setting": "[1]; buffer pH 7.4", "value": "≤ 15", "unit": "min"}, {"measurement": "Complete dissolution time of unencapsulated drug", "setting": "[1]; same buffer, pH 7.0", "value": "≤ 15", "unit": "min"}, {"measurement": "solubility", "setting": "[2]; 25 acetone/75 ethanol (v/v), organic solvent or mixture, 25 acetone/75 ethanol (V/V), 25° C., read-out: Solubility", "value": 4540, "unit": "µg/mL"}, {"measurement": "solubility", "setting": "[2]; 50 acetone/50 ethanol (v/v), organic solvent or mixture, 50 acetone/50 ethanol (V/V), 25° C., read-out: Solubility", "value": 4700, "unit": "µg/mL"}, {"measurement": "solubility", "setting": "[2]; 75 acetone/25 ethanol (v/v), organic solvent or mixture, 75 acetone/25 ethanol (V/V), 25° C., read-out: Solubility", "value": 4740, "unit": "µg/mL"}, {"measurement": "solubility", "setting": "[2]; acetone, organic solvent or mixture, acetone, 25° C., read-out: Solubility", "value": 5100, "unit": "µg/mL"}, {"measurement": "solubility", "setting": "[2]; benzene, organic solvent or mixture, benzene, 25° C., read-out: Solubility", "value": 1400, "unit": "µg/mL"}, {"measurement": "solubility", "setting": "[2]; benzene, organic solvent or mixture, benzene, 50° C., read-out: Solubility", "value": 2400, "unit": "µg/mL"}, {"measurement": "solubility", "setting": "[2]; chloroform, organic solvent or mixture, chloroform, 25° C., read-out: Solubility", "value": 7600, "unit": "µg/mL"}, {"measurement": "solubility", "setting": "[2]; cyclohexane, 80° C.", "value": "Insoluble"}, {"measurement": "solubility", "setting": "[2]; decahydronaphthalene, organic solvent or mixture, decahydronaphthalene, 25° C., read-out: Solubility", "value": 1700, "unit": "µg/mL"}, {"measurement": "solubility", "setting": "[2]; decahydronaphthalene, organic solvent or mixture, decahydronaphthalene, 130° C., read-out: Solubility", "value": 3400, "unit": "µg/mL"}, {"measurement": "solubility", "setting": "[2]; ethanol, organic solvent or mixture, ethanol, 25° C., read-out: Solubility", "value": 6640, "unit": "µg/mL"}, {"measurement": "solubility", "setting": "[2]; ethanol, organic solvent or mixture, ethanol, 73° C., read-out: Solubility", "value": 52000, "unit": "µg/mL"}, {"measurement": "solubility", "setting": "[2]; ethyl acetate, organic solvent or mixture, ethyl acetate, 4° C., read-out: Solubility", "value": 2600, "unit": "µg/mL"}, {"measurement": "solubility", "setting": "[2]; ethyl acetate, organic solvent or mixture, ethyl acetate, 25° C., read-out: Solubility", "value": 6300, "unit": "µg/mL"}, {"measurement": "solubility", "setting": "[2]; ethyl acetate, organic solvent or mixture, ethyl acetate, 77° C., read-out: Solubility", "value": 45000, "unit": "µg/mL"}, {"measurement": "solubility", "setting": "[2]; isopropanol, organic solvent or mixture, isopropanol, 25° C., read-out: Solubility", "value": 26800, "unit": "µg/mL"}, {"measurement": "solubility", "setting": "[2]; isopropanol, organic solvent or mixture, isopropanol, 80° C., read-out: Solubility", "value": 26800, "unit": "µg/mL"}, {"measurement": "solubility", "setting": "[2]; methanol, organic solvent or mixture, methanol, 25° C., read-out: Solubility", "value": 18400, "unit": "µg/mL"}, {"measurement": "solubility", "setting": "[2]; methanol, organic solvent or mixture, methanol, 63° C., read-out: Solubility", "value": 33200, "unit": "µg/mL"}, {"measurement": "solubility", "setting": "[2]; methyl ethyl ketone, organic solvent or mixture, methyl ethyl ketone, 4° C., read-out: Solubility", "value": 9100, "unit": "µg/mL"}, {"measurement": "solubility", "setting": "[2]; methyl ethyl ketone, organic solvent or mixture, methyl ethyl ketone, 25° C., read-out: Solubility", "value": 16000, "unit": "µg/mL"}, {"measurement": "solubility", "setting": "[2]; methyl ethyl ketone, organic solvent or mixture, methyl ethyl ketone, 79° C., read-out: Solubility", "value": 59800, "unit": "µg/mL"}, {"measurement": "solubility", "setting": "[2]; n-butanol, organic solvent or mixture, n-butanol, 4° C., read-out: Solubility", "value": 4500, "unit": "µg/mL"}, {"measurement": "solubility", "setting": "[2]; n-butanol, organic solvent or mixture, n-butanol, 25° C., read-out: Solubility", "value": 15000, "unit": "µg/mL"}, {"measurement": "solubility", "setting": "[2]; n-butanol, organic solvent or mixture, n-butanol, 117° C., read-out: Solubility", "value": 215000, "unit": "µg/mL"}, {"measurement": "Solubility (in words)", "setting": "[2]; range of solvents, room temperature", "value": "relatively low solubility"}, {"measurement": "solubility", "setting": "[2]; toluene, organic solvent or mixture, toluene, 25° C., read-out: Solubility", "value": 1000, "unit": "µg/mL"}, {"measurement": "solubility", "setting": "[2]; toluene, organic solvent or mixture, toluene, 35° C., read-out: Solubility", "value": 1500, "unit": "µg/mL"}, {"measurement": "solubility", "setting": "[2]; toluene, organic solvent or mixture, toluene, 50° C., read-out: Solubility", "value": 4000, "unit": "µg/mL"}, {"measurement": "solubility", "setting": "[2]; toluene, organic solvent or mixture, toluene, 100° C., read-out: Solubility", "value": 15000, "unit": "µg/mL"}, {"measurement": "solubility", "setting": "[2]; xylene, organic solvent or mixture, xylene, 25° C., read-out: Solubility", "value": 1200, "unit": "µg/mL"}, {"measurement": "solubility", "setting": "[2]; xylene, organic solvent or mixture, xylene, 50° C., read-out: Solubility", "value": 1800, "unit": "µg/mL"}, {"measurement": "solubility", "setting": "[2]; xylene, organic solvent or mixture, xylene, 90° C., read-out: Solubility", "value": 17500, "unit": "µg/mL"}]}, {"compound": "O=C1CC[C@@]2(O)[C@H]3Cc4ccc(O)c5c4[C@@]2(CCN3CC2CC2)[C@H]1O5", "note": "[NFB]", "values": [{"measurement": "% Antagonism", "setting": "[3]; 7 days, 40 mg unencapsulated NFB/kg mouse, peanut oil", "value": 80.0, "unit": "%"}, {"measurement": "% Antagonism", "setting": "[3]; 7 days, 40 mg unencapsulated NFB/kg mouse, peanut oil + 2 wt. % AIMS", "value": 54.1, "unit": "%"}, {"measurement": "% Antagonism", "setting": "[3]; 10 days, 40 mg unencapsulated NFB/kg mouse, peanut oil", "value": 39.7, "unit": "%"}, {"measurement": "% Antagonism", "setting": "[3]; 10 days, 40 mg unencapsulated NFB/kg mouse, peanut oil + 2 wt. % AIMS", "value": 69.5, "unit": "%"}, {"measurement": "% Antagonism", "setting": "[3]; 14 days, 40 mg unencapsulated NFB/kg mouse, peanut oil", "value": 21.8, "unit": "%"}, {"measurement": "% Antagonism", "setting": "[3]; 14 days, 40 mg unencapsulated NFB/kg mouse, peanut oil + 2 wt. % AIMS", "value": 48.0, "unit": "%"}, {"measurement": "% Antagonism", "setting": "[3]; 21 days, 40 mg unencapsulated NFB/kg mouse, peanut oil", "value": 8.1, "unit": "%"}, {"measurement": "% Antagonism", "setting": "[3]; 21 days, 40 mg unencapsulated NFB/kg mouse, peanut oil + 2 wt. % AIMS", "value": 15.2, "unit": "%"}]}, {"compound": "O=C1CC[C@@]2(O)[C@H]3Cc4ccc(O)c5c4[C@@]2(CCN3CC2CC2)[C@H]1O5", "note": "[NP]", "values": [{"measurement": "% Antagonism", "setting": "[3]; 7 days, 40 mg unencapsulated NP/kg mouse, peanut oil", "value": 66.1, "unit": "%"}, {"measurement": "% Antagonism", "setting": "[3]; 7 days, 40 mg unencapsulated NP/kg mouse, peanut oil + 2 wt. % AIMS", "value": 88.3, "unit": "%"}, {"measurement": "% Antagonism", "setting": "[3]; 14 days, 40 mg unencapsulated NP/kg mouse, peanut oil", "value": 59.1, "unit": "%"}, {"measurement": "% Antagonism", "setting": "[3]; 14 days, 40 mg unencapsulated NP/kg mouse, peanut oil + 2 wt. % AIMS", "value": 52.9, "unit": "%"}, {"measurement": "% Antagonism", "setting": "[3]; 21 days, 40 mg unencapsulated NP/kg mouse, peanut oil", "value": 12.9, "unit": "%"}, {"measurement": "% Antagonism", "setting": "[3]; 21 days, 40 mg unencapsulated NP/kg mouse, peanut oil + 2 wt. % AIMS", "value": 11.2, "unit": "%"}, {"measurement": "% Antagonism", "setting": "[3]; 28 days, 40 mg unencapsulated NP/kg mouse, peanut oil", "value": 13.9, "unit": "%"}, {"measurement": "% Antagonism", "setting": "[3]; 28 days, 40 mg unencapsulated NP/kg mouse, peanut oil + 2 wt. % AIMS", "value": 18.4, "unit": "%"}]}]}
